For orientation: melting point means the temperature of the solid-liquid transition. Consider `C(=C\c1ccc2c(c1)COC(N[C@@H]1CCc3ccccc31)=N2)/c1ccccc1`, for which the melting point worked out at 162 °C. To `COC(=O)c1cc(OC)c(O)cc1-c1c(C(=O)OC)ccc2c1OCO2` belongs 172 to 173 °C; to `CCOC(=O)c1cn(C(=O)c2ccccc2)c2sc(-c3ccc(OC)cc3)c(CBr)c2c1=O`, 124 to 126 °C. In the case of `Cn1c(C(=O)O)c(-c2ccc(F)cc2)c2ccn(C)c2c1=O` it was 155 to 157 °C; in that of `COC1=Cc2ccccc2C(=CC(=O)O)c2ccsc21`, 163 to 167 °C. In the case of `O=C1NC(=O)C2(c3ccc4ncccc4n3)C=CC=CC12` (configuration not stated) it was 206 °C; in that of `CN1[C@H](Cc2ccc(C(N)=NO)cc2)[C@@H]2C(=O)N(Cc3ccccc3)C(=O)[C@@H]2C1(C)C` (racemic), 189 to 192 °C; in that of `COc1nc(C)cnc1NS(=O)(=O)c1cccnc1-c1ccc(COC(C)C)cc1`, 123 to 124 °C.

`Cc1cccc2c1C(NCCSCc1ccc(CN(C)C)o1)=NS2(=O)=O`: the melting point was in the range of 90 to 92 °C.

`COc1ccc2c(c1)N(C)C(=S)C2` returned a melting point of 135 to 136 °C. For the compound `Oc1ccc(-c2cc(S)n3nccc3n2)cc1O`, the melting point is > 280 °C. In the case of `COc1cc(C(C)=O)ccc1OCCCCN1CCN(c2n[nH]c3cc(Cl)ccc23)CC1` it was 189 to 191 °C. To `CC(CCC(F)(F)C(C)(C)O)C1CCC2C3CCC4CC(O)CCC4(C)C3CCC12C` (configuration not stated) belongs 142 °C; to `COC(=O)Nc1cc(OS(=O)(=O)c2ccc(C)cc2)nc(N)n1`, 188 to 190 °C; to `CCCCOC(=O)COc1cc(F)c(-c2nn(C)c(C(F)(F)F)c2Cl)cc1[N+](=O)[O-]`, 65 °C. To `Cc1oc(-c2ccccc2)nc1COc1ccc(CON=C(CCC(=O)O)c2ccccn2)cc1` belongs 116 to 117 °C; to `CCOC(=O)C(=CNc1cccc(C)n1)C(=O)OCC`, 102 to 104 °C; to `CCOC(=O)CCCN(C(=O)c1cccc(C(F)(F)F)c1)c1ccccc1-c1ccccc1`, 65 to 67 °C. For `COc1cc(Nc2c(C#N)cnc3sccc23)c(Cl)cc1Cl`, the melting point fell in the range of 197 to 199 °C. To `Cc1cc(C)c2c(c1O)C(NS(C)(=O)=O)CC2` (configuration not stated) belongs 114 to 116 °C; to `Clc1cnc2[nH]c3ccc(CCc4ccccc4)cc3c2c1`, 216 to 220 °C; to `N=C(N)NCCCCOc1ccc2c(c1)CC(CC(=O)O)C(=O)N2` (configuration not stated), 170 to 173 °C. Consider `CS(=O)(=O)OCCNc1ccc(C(F)(F)F)cc1[N+](=O)[O-]`, for which the melting point lay within 68 to 70 °C.

Take `COC(C#N)Cc1ccc2oc(Cc3nc(-c4ccccc4)oc3C)cc2c1` (configuration not stated): the melting point fell in the range of 107 to 109 °C.

Consider `CC(=O)Nc1ccc(OCC(=O)O)c(C(=O)NCc2ccc(Br)cc2F)c1`, for which the melting point was found to be 235 °C. To `c1ccc2c(c1)NCS2` belongs 60 to 62 °C.

In turn, `O=C1CC(Cl)C(=O)N1C1CCCCC1` (configuration not stated) registered a melting point of 63 to 64 °C. In the case of `CC(Cc1c[nH]c2ccccc12)(NC(=O)OCC1c2ccccc2-c2ccccc21)C(=O)NC(CO)Cc1ccccc1` (configuration not stated) it was 89 to 93 °C; in that of `Cc1sc(-c2ccccc2)nc1COc1ccc(CCl)cn1`, 78 to 79 °C. In the case of `Cc1onc(-c2ccc(Cl)cc2)c1CCl` it was 91 to 92 °C.

Consider `Cc1cccc(C)c1N(CCC(C)N1C(=O)c2ccccc2C1=O)S(C)(=O)=O` (configuration not stated), for which the melting point was in the range of 148 to 152 °C. To `Cn1cc(-c2ccc(Br)cc2)c(=O)c(-c2cccc(C(F)(F)F)c2)c1` belongs 144 to 146 °C; to `Cc1[nH]c2ccccc2c1Cc1cccnc1`, 207 to 210 °C. In the case of `CC(C)(C)NC(=O)[C@@H]1C[C@H](Br)CN1C(=O)[C@@H](O)[C@H](Cc1ccccc1)NC(=O)[C@H](CC(N)=O)NC(=O)OCc1ccccc1` it was 100 to 105 °C.

On to `CC(C)(C)c1cc(C(c2cc(C(C)(C)C)c(O)c(C(C)(C)C)c2)c2ccco2)cc(C(C)(C)C)c1O`, for which the melting point lay within 158 to 159 °C. In the case of `Cc1nnc2n1-c1sc(CC(=O)N3CCOCC3)cc1C(c1ccccc1Cl)=NC2` it was 143 to 144 °C. In the case of `CCOc1ccc(C=CC(=O)c2c(OC)cc(OC)cc2OP(=O)(O)O)cc1` it was 63 to 64 °C; in that of `O=C(CC12CC3CC(CC(C3)C1)C2)Nc1ccc2[nH]ccc2c1`, 184 to 185 °C. As for `CCCCC1=NC2(CCCC2)C(=O)N1Cc1ccc(-c2ccccc2S(=O)(=O)Nc2onc(C)c2C)c(CN2CCC(C)(C)C2=O)c1`, the melting point was in the range of 104 to 110 °C. To `Oc1ccc(-c2noc(C3CC3)c2-c2ccccc2)cc1` belongs 197 to 200 °C. In the case of `COC1=CC(=NC2CCCCC2)c2ccccc2C1=O` it was 145 to 147 °C; in that of `COc1cccc(Nc2cc(=S)ss2)c1`, 131 to 134 °C; in that of `CC(=O)N(C)c1c(C(=O)c2ccccc2)[nH]c2cc(Cl)ccc12`, 232 to 235 °C. In the case of `CCOc1cc2c(cc1O)C(C(Cl)(Cl)Cl)OC2=O` (configuration not stated) it was 143 to 144 °C; in that of `C[C@H](O)CNc1cc(Oc2ccc(F)cc2F)nc2[nH]nc(-c3ccccc3Cl)c12`, 238 °C. Take `CCOC(=O)C(=O)CC(=O)/C=C/c1ccc(Cl)cc1`: the melting point is 117 to 118 °C. To `CCN(CC)OCc1cc(C(C)(C)C)c(O)c(C(C)(C)C)c1` belongs 129 to 137 °C; to `CCOC(=O)Cc1c(C)n(Cc2ccccc2)c2cccc(OCc3coc(-c4ccccc4)n3)c12`, 103 to 105 °C; to `S=C(NCCCC1(Cl)CC=CS1)Nc1ccccn1` (configuration not stated), 116 to 122 °C. In the case of `CC(=Cc1ccc(C(C)(C)C)cc1)C[N+]1([O-])CCCCC1` it was 82 to 88 °C.

In the case of `COc1ccc(-c2oncc2CCC(=O)O)cc1`, the melting point was 101 to 102 °C. For `Nc1cc(F)ccc1NC(c1ccccc1)c1ccccc1`, the melting point was determined as 120 °C.

In turn, `CC(NC(=O)OC(C)(C)C)c1ccc(NS(C)(=O)=O)c(C#Cc2ccccc2)c1` (configuration not stated) showed a melting point of 157 to 158 °C. To `COC(=O)C1=CC=C(/C=C/c2ccc(OC)cc2)C2=CC(C(C)C)=CC=C(C)C2=C1C(=O)OC` belongs 161 to 162 °C; to `CCOC(=O)c1c(N(Cc2c(F)cccc2F)C(=O)OCC)sc(-c2ccc([N+](=O)[O-])cc2)c1CBr`, 105 to 108 °C; to `CC(=O)OC1CSC(Oc2cccc(-c3cccnc3)c2)C(OC(C)=O)C1OC(C)=O` (configuration not stated), 123 to 126 °C. In the case of `CC(C)(C)c1ccc(OP(Oc2ccc(C(C)(C)C)cc2C(C)(C)C)c2cccc3ccccc23)c(C(C)(C)C)c1` it was 125 to 127 °C.

As for `FC(F)(F)c1cccc(N2CCN(CC[C@H]3CC[C@H](Nc4ncccn4)CC3)CC2)c1`, the melting point came to 167 °C. For `CC(C)(C)c1cc(C(C(=O)O)c2cc(C(C)(C)C)c(O)c(C(C)(C)C)c2)cc(C(C)(C)C)c1O`, the melting point worked out at 211 °C.

Compound `CC1(c2ccc(OCc3ccccc3)c(Br)c2)C(=O)Nc2cc(Cl)cc(Cl)c2C1=O` (configuration not stated) returned a melting point of 189 to 190 °C.

On to `CSc1c(OCC(=O)O)ccc2c3ccccc3n(Cc3ccccc3)c12`, for which the melting point was 188 to 189 °C.

Regarding `O=S(=O)(Nc1cccnc1Cl)C(F)(F)F`, the melting point was in the range of 120 to 122 °C. To `COc1ccc(/C=C2/c3cc(OC)c(OC)cc3CCN2C(=O)C2CC2)cc1OC` belongs 148 to 151 °C. To `COC(=O)c1ccc(-c2ccc(-c3cn([C@H]4CN5CCC4CC5)nn3)s2)cc1Cl` belongs 200 °C; to `Cc1c(C(=O)O)ccc2c1[nH]c1ccccc12`, > 240 °C. In the case of `CCn1c(=O)c2c(nc(/C=C/c3cc4c(cc3Br)OCO4)n2C)n(CC)c1=O` it was 255 to 256 °C; in that of `Cc1cc(-c2ccc(O)cc2)cc2ccc(=O)[nH]c12`, 270 to 274 °C; in that of `CC1CC(=O)NN=C1c1ccc(Nc2ccccc2)nc1` (configuration not stated), 202 to 204 °C. In the case of `CN(C(=O)Nc1ccc(OC(F)(F)F)cc1)c1nc(OCC(F)(F)F)cc(OCC(F)(F)F)n1`, the melting point lay in the range of 123 to 125 °C. On to `COc1ccc(N2CCOCC2)c2sc(NC(=O)N(C)C3CCOCC3)nc12`, for which the melting point was in the range of 240 to 242 °C. Take `O=c1c2c[nH]c3ccc(F)cc3c-2nn1-c1ncccn1`: the melting point was > 350 °C.

`COc1cc(-c2nc3cnc(OC[C@H](C)NC(C)=O)cc3o2)cc(F)c1OCC1CC1` had a melting point of 163 °C. In the case of `O=C(O)CN1C(=O)C(=Cc2cccnc2)SC1=S` it was 261 to 264 °C; in that of `CC/C(=C\C=C\C(=O)O)c1ccc(OC)cc1`, 136 to 137 °C; in that of `Nc1nnc(-c2ccc3ncn(-c4ccccc4Cl)c3c2)o1`, 254 to 255 °C.

Compound `O=C(N[C@@H](CSc1ccccc1)[C@H]1CO1)OCc1ccccc1` returned a melting point of 61.7 °C. To `CCNC(=O)Nc1nc2cc(-c3cccnc3)cc(-c3nc(C)no3)n2n1` belongs 298 to 301 °C; to `Oc1ccc(C2N(c3ccccc3)CCN2c2ccccc2)c2cccnc12`, 190 to 196 °C. To `COCc1cccc(COC)c1C#N` belongs 80 to 81 °C; to `COCCOc1ccc(CCCOC(=O)NS(N)(=O)=O)c(Oc2ncc(Cl)cc2Cl)c1`, 153 to 154 °C; to `CN(C)C=C1CC(=O)Nc2ccccc2C1=O`, 203 to 205 °C. To `CC(C)(C)C(=O)Nc1cc(OCc2ccccc2)c(OCc2ccccc2)cc1N` belongs 115 °C; to `CC(C)c1ccc(-c2csc(-c3cccc(C(=O)O)c3)c2)cc1`, 220 to 222 °C; to `COC(=O)c1ccc2c(c1)c1cc(-c3ccc(C=O)cc3)c(=O)n(C)c1n2C`, 230 °C. On to `C[C@H]1CCCC(C)(C)[C@@H]1[C@H](O)c1ccc(OC(F)(F)F)c(F)c1`, for which the melting point lay in the range of 60.3 to 62.2 °C. In the case of `C#CCOC(=O)C1=C(C)N(C)C(C)=C(C(=O)OCC#C)C1c1cccc(C(F)(F)F)c1` it was 163 °C; in that of `CC(=O)c1cc2c(C(C)=O)c(OCC(O)CNC(C)(C)C)ccc2o1` (configuration not stated), 122 °C.

(Values after a melting point compilation (Tetko et al.; mined from patent text by program, amines drawn as free bases though some values may be those of a salt).)
